The values that follow come from US20250026721A1, “COMPOUNDS AND METHODS FOR MODULATING RAS-PI3K” (Vividion Therapeutics, Inc., priority 2023, published 2025).

The target in experiment [1] is T1, PIK3CA (Homo sapiens, UniProt P42336).
T1 construct: endogenous in cells; host or cells: Jurkat cell lysate
Kind of experiment: In vitro ELISA target engagement assay for PIK3CA in Jurkat cellular lysate (competition with PIK3CA Biotin Probe). The format is binding. As to conditions: 1 hour at rt, then 500 nM PIK3CA Biotin Probe, read-out: Elisa Target Engagement Assay (TE50). The gist of the method: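 Competition format in Jurkat lysate: compound (serial dilutions, top 200 μM) for 1 h at rt, then 500 nM final biotinylated PIK3CA probe for 1 h at rt. Sandwich ELISA with capture antibody and Neutravidin-HRP luminescence read-out measured probe-labelled PIK3CA, giving TE50.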
A general note: In an ELISA, binding on a coated surface is turned into a signal by an enzyme label.

The target in experiment [2] is T2, PIK3CA_C242 (Homo sapiens, UniProt P42336).
T2 construct: endogenous in cells; host or cells: Jurkat cell lysate
T2 sequence (P42336 whole entry): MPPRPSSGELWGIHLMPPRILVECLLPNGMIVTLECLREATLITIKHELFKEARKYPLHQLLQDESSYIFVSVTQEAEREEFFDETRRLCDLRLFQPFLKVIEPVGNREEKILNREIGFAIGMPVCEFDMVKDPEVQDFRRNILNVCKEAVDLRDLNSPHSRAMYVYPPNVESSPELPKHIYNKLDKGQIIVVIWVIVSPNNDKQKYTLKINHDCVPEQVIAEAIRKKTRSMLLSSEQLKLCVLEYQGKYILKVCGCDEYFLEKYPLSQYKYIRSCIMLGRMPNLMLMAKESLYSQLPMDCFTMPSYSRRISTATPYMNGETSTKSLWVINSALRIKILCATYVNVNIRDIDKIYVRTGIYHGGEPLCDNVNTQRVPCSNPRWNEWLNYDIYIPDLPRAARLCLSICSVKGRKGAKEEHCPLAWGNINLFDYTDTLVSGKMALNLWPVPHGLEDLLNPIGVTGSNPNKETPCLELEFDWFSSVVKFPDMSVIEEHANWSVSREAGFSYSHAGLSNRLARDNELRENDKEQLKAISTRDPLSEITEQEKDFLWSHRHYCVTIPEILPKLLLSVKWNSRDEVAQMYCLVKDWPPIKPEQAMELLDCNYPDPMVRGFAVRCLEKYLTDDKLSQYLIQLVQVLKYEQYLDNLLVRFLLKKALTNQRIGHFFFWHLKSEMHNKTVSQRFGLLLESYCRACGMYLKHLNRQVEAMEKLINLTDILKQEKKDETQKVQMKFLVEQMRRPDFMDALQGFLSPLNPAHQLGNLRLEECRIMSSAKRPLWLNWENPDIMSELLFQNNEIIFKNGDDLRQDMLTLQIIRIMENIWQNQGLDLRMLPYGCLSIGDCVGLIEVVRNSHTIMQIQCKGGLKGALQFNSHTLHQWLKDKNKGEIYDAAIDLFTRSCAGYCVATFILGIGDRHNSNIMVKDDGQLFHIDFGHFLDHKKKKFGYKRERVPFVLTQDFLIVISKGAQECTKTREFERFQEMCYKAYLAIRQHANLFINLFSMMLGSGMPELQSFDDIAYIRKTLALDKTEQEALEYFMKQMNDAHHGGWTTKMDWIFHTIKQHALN
T2 sequence (P27986 whole entry partner): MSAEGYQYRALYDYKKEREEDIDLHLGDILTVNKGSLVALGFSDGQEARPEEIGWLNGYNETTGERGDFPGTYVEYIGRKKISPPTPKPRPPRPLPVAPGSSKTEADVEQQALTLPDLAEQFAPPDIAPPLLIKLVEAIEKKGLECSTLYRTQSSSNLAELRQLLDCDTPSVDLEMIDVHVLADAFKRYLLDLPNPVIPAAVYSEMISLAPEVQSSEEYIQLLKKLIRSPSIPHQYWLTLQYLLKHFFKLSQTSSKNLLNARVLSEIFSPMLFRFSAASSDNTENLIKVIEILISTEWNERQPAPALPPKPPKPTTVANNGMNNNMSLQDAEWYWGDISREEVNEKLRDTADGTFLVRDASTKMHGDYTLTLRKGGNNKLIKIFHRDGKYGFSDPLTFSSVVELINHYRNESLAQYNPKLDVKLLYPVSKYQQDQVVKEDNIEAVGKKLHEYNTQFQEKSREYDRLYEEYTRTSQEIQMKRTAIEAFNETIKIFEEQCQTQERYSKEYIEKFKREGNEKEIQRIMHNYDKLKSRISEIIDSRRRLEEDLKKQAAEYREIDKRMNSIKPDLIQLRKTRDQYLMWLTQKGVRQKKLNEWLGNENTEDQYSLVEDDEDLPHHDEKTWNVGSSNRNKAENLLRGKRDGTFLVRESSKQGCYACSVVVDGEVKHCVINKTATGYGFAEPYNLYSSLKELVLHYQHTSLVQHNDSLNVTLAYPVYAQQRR
Kind of experiment: Proteomic TE50 (IA-DTB / TMT mass spectrometry) in Jurkat cell lysate. The format is binding. As to conditions: 1 hour at rt, 7-point dose response. The method, boiled down:
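Cysteine engagement was read by targeted TMT MS3 of the IA-DTB-labelled, streptavidin-enriched C242 tryptic peptide. Beforehand, Jurkat lysate was exposed to a 7-point 1:5 compound series for 1 h at rt, then to 200 μM IA-DTB for 1 h. Reporter S/N curves gave TE50.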

T1 sequence (P42336 whole entry): as the sequence (P42336 whole entry) above
T1 sequence (P27986 whole entry partner): as the sequence (P27986 whole entry partner) above

On to `COc1cccc(-c2cc(F)ccc2S(=O)(=O)N2CCC(F)(C(=O)N[C@@H](C)/C=C\S(C)(=O)=O)CC2)c1` [Compound 9, (S,Z)-4-fluoro-1-((5-fluoro-3′-methoxy-[1,1′-biphenyl]-2-yl)sulfonyl)-N-(4-(methylsulfonyl)but-3-en-2-yl)piperidine-4-carboxamide], for which the IC50 in experiment [1] is 570 nM; in experiment [2] it was 507 nM.
For `C[C@@H](/C=C\S(C)(=O)=O)NC(=O)C1(F)CCN(S(=O)(=O)c2ccc(Cl)cc2-c2cccc(Cl)c2)CC1` [Compound 3, (S,Z)-1-((3′,5-dichloro-[1,1′-biphenyl]-2-yl)sulfonyl)-4-fluoro-N-(4-(methylsulfonyl)but-3-en-2-yl)piperidine-4-carboxamide], in that order: 90 nM and 110 nM.
For `C[C@H](/C=C\S(C)(=O)=O)NC(=O)C1(F)CCN(S(=O)(=O)c2ccc(Br)cc2-c2ncccc2Cl)CC1` [Compound 204, (R,Z)-1-((4-bromo-2-(3-chloropyridin-2-yl)phenyl)sulfonyl)-4-fluoro-N-(4-(methylsulfonyl)but-3-en-2-yl)piperidine-4-carboxamide], in that order: 340 nM and 730 nM.
For `CCc1ccc(S(=O)(=O)N2CCC(F)(C(=O)N[C@H](C)/C=C\S(C)(=O)=O)CC2)c(-c2ccccc2)c1` [Compound 112, (R,Z)-1-((5-ethyl-[1,1′-biphenyl]-2-yl)sulfonyl)-4-fluoro-N-(4-(methylsulfonyl)but-3-en-2-yl)piperidine-4-carboxamide], in that order: 780 nM and 660 nM.
`COc1cccc(-c2cc(Cl)ccc2S(=O)(=O)N2CCC(C)(C(=O)N[C@@H](C)/C=C\S(C)(=O)=O)CC2)c1` [Compound 201, (S,Z)-1-((5-chloro-3′-methoxy-[1,1′-biphenyl]-2-yl)sulfonyl)-4-methyl-N-(4-(methylsulfonyl)but-3-en-2-yl)piperidine-4-carboxamide]: the IC50 in experiment [1] amounted to 350 nM; in experiment [2] it was 310 nM.
For `C[C@H](/C=C\S(C)(=O)=O)NC(=O)C1(F)CCN(S(=O)(=O)c2ccc(N3CCCC3)cc2-c2ccccc2Cl)CC1` [Compound 119, (R,Z)-1-((2′-chloro-5-(pyrrolidin-1-yl)-[1,1′-biphenyl]-2-yl)sulfonyl)-4-fluoro-N-(4-(methylsulfonyl)but-3-en-2-yl)piperidine-4-carboxamide], in that order: 670 nM and 460 nM.
For `C[C@H](/C=C\S(C)(=O)=O)NC(=O)C1(F)CCN(S(=O)(=O)c2ccc(N3CCC3)cc2-c2ccccc2Cl)CC1` [Compound 124, (R,Z)-1-((5-(azetidin-1-yl)-2′-chloro-[1,1′-biphenyl]-2-yl)sulfonyl)-4-fluoro-N-(4-(methylsulfonyl)but-3-en-2-yl)piperidine-4-carboxamide], in that order: 320 nM and 150 nM.
For `C=C(C)c1ccc(S(=O)(=O)N2CCC(F)(C(=O)N[C@H](C)/C=C\S(C)(=O)=O)CC2)c(-c2ccccc2Cl)c1` [Compound 109, (R,Z)-1-((2′-chloro-5-(prop-1-en-2-yl)-[1,1′-biphenyl]-2-yl)sulfonyl)-4-fluoro-N-(4-(methylsulfonyl)but-3-en-2-yl)piperidine-4-carboxamide], in that order: 360 nM and 280 nM.
In the case of `CC[C@@H](/C=C\S(C)(=O)=O)NC(=O)C1(F)CCN(S(=O)(=O)c2ccc(Cl)cc2-c2ccccc2)CC1` [Compound 84, (S,Z)-1-((5-chloro-[1,1′-biphenyl]-2-yl)sulfonyl)-4-fluoro-N-(1-(methylsulfonyl)pent-1-en-3-yl)piperidine-4-carboxamide], the IC50 in experiment [1] worked out at 510 nM; in experiment [2], 450 nM.
For `CC(C)c1ccc(S(=O)(=O)N2CCC(F)(C(=O)N[C@H](C)/C=C\S(C)(=O)=O)CC2)c(-c2ccccc2Cl)c1` [Compound 114, (R,Z)-1-((2′-chloro-5-isopropyl-[1,1′-biphenyl]-2-yl)sulfonyl)-4-fluoro-N-(4-(methylsulfonyl)but-3-en-2-yl)piperidine-4-carboxamide], in that order: 610 nM and 680 nM.
For `C[C@@H](/C=C\S(C)(=O)=O)NC(=O)C1(F)CCN(S(=O)(=O)c2ccc(N(C)C)cc2-c2ccccc2)CC1` [Compound 88, (S,Z)-1-((5-(dimethylamino)-[1,1′-biphenyl]-2-yl)sulfonyl)-4-fluoro-N-(4-(methylsulfonyl)but-3-en-2-yl)piperidine-4-carboxamide], in that order: 79 nM and 86 nM.
For `C[C@@H](/C=C\S(C)(=O)=O)NC(=O)C1(F)CCN(S(=O)(=O)c2ccc(Cl)cc2-c2ccccc2Cl)CC1` [Compound 6, (S,Z)-1-((2′,5-dichloro-[1,1′-biphenyl]-2-yl)sulfonyl)-4-fluoro-N-(4-(methylsulfonyl)but-3-en-2-yl)piperidine-4-carboxamide], in that order: 50 nM and 26 nM.
Turning to `CC#Cc1cccc(-c2cc(Cl)ccc2S(=O)(=O)N2CCC(F)(C(=O)N[C@@H](C)/C=C\S(C)(=O)=O)CC2)c1` [Compound 100, (S,Z)-1-((5-chloro-3′-(prop-1-yn-1-yl)-[1,1′-biphenyl]-2-yl)sulfonyl)-4-fluoro-N-(4-(methylsulfonyl)but-3-en-2-yl)piperidine-4-carboxamide], the IC50 in experiment [1] turned out to be 99 nM; in experiment [2], 96 nM.
As to `C[C@@H](/C=C\S(C)(=O)=O)NC(=O)C1(F)CCN(S(=O)(=O)c2ccc(Cl)cc2-c2cccc(OC3CC3)c2)CC1` [Compound 15, (S,Z)-1-((5-chloro-3′-cyclopropoxy-[1,1′-biphenyl]-2-yl)sulfonyl)-4-fluoro-N-(4-(methylsulfonyl)but-3-en-2-yl)piperidine-4-carboxamide], the IC50 was 410 nM in experiment [1] and 400 nM in experiment [2].
For `COc1cccc(-c2cc(Cl)ccc2S(=O)(=O)N2CCC(C)(C(=O)N[C@H](C)/C=C\S(C)(=O)=O)CC2)c1` [Compound 203, (R,Z)-1-((5-chloro-3′-methoxy-[1,1′-biphenyl]-2-yl)sulfonyl)-4-methyl-N-(4-(methylsulfonyl)but-3-en-2-yl)piperidine-4-carboxamide], in that order: 980 nM and 1110 nM.
For `COc1cccc(-c2cc(N(C)C)ccc2S(=O)(=O)N2CCC(F)(C(=O)N[C@@H](C)/C=C\S(C)(=O)=O)CC2)c1` (racemic) [Compound 86, 1-[4-(Dimethylamino)-2-(3-methoxyphenyl)phenyl]sulfonyl-4-fluoro-N-[rac-(Z, 1S)-1-methyl-3-methylsulfonyl-allyl]piperidine-4-carboxamide], in that order: 60 nM and 107 nM.
For `CO/N=C/c1cccc(-c2cc(Cl)ccc2S(=O)(=O)N2CCC(F)(C(=O)N[C@@H](C)/C=C\S(C)(=O)=O)CC2)c1` [Compound 127, 1-((5-chloro-3′-((E)-(methoxyimino)methyl)-[1,1′-biphenyl]-2-yl)sulfonyl)-4-fluoro-N-((S,Z)-4-(methylsulfonyl)but-3-en-2-yl) piperidine-4-carboxamide], in that order: 1100 nM and 960 nM.
Take `C[C@H](/C=C\S(C)(=O)=O)NC(=O)C1(F)CCN(S(=O)(=O)c2ccc(F)cc2-c2ccccc2Cl)CC1` [Compound 31, (R,Z)-1-((2′-chloro-5-fluoro-[1,1′-biphenyl]-2-yl)sulfonyl)-4-fluoro-N-(4-(methylsulfonyl)but-3-en-2-yl)piperidine-4-carboxamide]: the IC50 in experiment [1] turned out to be 760 nM; in experiment [2], 620 nM.
For `C[C@H](/C=C\S(C)(=O)=O)NC(=O)C1(F)CCN(S(=O)(=O)c2ncc(Br)cc2-c2ccccc2Cl)CC1` [Compound 218, (R,Z)-1-((5-bromo-3-(2-chlorophenyl)pyridin-2-yl)sulfonyl)-4-fluoro-N-(4-(methylsulfonyl)but-3-en-2-yl)piperidine-4-carboxamide], in that order: 560 nM and 440 nM.
Consider `COc1ccc(S(=O)(=O)N2CCC(F)(C(=O)N[C@H](C)/C=C\S(C)(=O)=O)CC2)c(-c2ccccc2Cl)c1` [Compound 25, (R,Z)-1-((2′-chloro-5-methoxy-[1,1′-biphenyl]-2-yl)sulfonyl)-4-fluoro-N-(4-(methylsulfonyl)but-3-en-2-yl)piperidine-4-carboxamide], for which the figures for the IC50 in experiment [1] and in experiment [2] were 290 nM and 238 nM, respectively.
For `Cc1ccccc1-c1cc(N2CCC2)ccc1S(=O)(=O)N1CCC(F)(C(=O)N[C@H](C)/C=C\S(C)(=O)=O)CC1` [Compound 116, (R,Z)-1-((5-(azetidin-1-yl)-2′-methyl-[1,1′-biphenyl]-2-yl)sulfonyl)-4-fluoro-N-(4-(methylsulfonyl)but-3-en-2-yl)piperidine-4-carboxamide], in that order: 340 nM and 261 nM.
With `C[C@H](/C=C\S(C)(=O)=O)NC(=O)C1(F)CCN(S(=O)(=O)c2cnc(Br)cc2-c2ccccc2Cl)CC1` [Compound 277, (R,Z)-1-((6-bromo-4-(2-chlorophenyl)pyridin-3-yl)sulfonyl)-4-fluoro-N-(4-(methylsulfonyl)but-3-en-2yl)piperidine-4-carboxamide], the IC50 in experiment [1] was found to be 97 nM; in experiment [2], 82 nM.
For `COc1ccc(S(=O)(=O)N2CCC(F)(C(=O)N[C@H](C)/C=C\S(C)(=O)=O)CC2)c(-c2c(F)cccc2Cl)c1` [Compound 30, 1-((2′-chloro-6′-fluoro-5-methoxy-[1,1′-biphenyl]-2-yl)sulfonyl)-4-fluoro-N-((R,Z)-4-(methylsulfonyl)but-3-en-2-yl)piperidine-4-carboxamide], in that order: 560 nM and 340 nM.
